# Assay results reported in ChEMBL document CHEMBL1201862, “PubChem BioAssay data set” (2004).
#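 Test compounds were applied to cells in 96-well plates for 48 hours at 5 doses. At the GI50, growth is halved.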 Activity calls are given as the source filed them. Rule as the data show it: active = GI50 up to about 1.1 µM and inactive = higher.
# Columns and labels:
# Experiment in all cases: DTP human tumour cell line panel, 48 h
# 786-0 = tested on: 786-0
# A549 = tested on: A549
# ACHN = tested on: ACHN
# BT-549 = tested on: BT-549
# CCRF-CEM = tested on: CCRF-CEM
# COLO 205 = tested on: COLO 205
# DU-145 = tested on: DU-145
# EKVX = tested on: EKVX
# HCC 2998 = tested on: HCC 2998
# HCT-116 = tested on: HCT-116
# HL-60 = tested on: HL-60
# HOP-62 = tested on: HOP-62
# HT-29 = tested on: HT-29
# Hs-578T = tested on: Hs-578T
# IGROV-1 = tested on: IGROV-1
# K562 = tested on: K562
# KM12 = tested on: KM12
# LOX IMVI = tested on: LOX IMVI
# M14 = tested on: M14
# MCF7 = tested on: MCF7
# MDA-MB-435 = tested on: MDA-MB-435
# MDA-N = tested on: MDA-N
# MOLT-4 = tested on: MOLT-4
# Malme-3M = tested on: Malme-3M
# NCI-H226 = tested on: NCI-H226
# NCI-H23 = tested on: NCI-H23
# NCI-H460 = tested on: NCI-H460
# NCI-H522 = tested on: NCI-H522
# NCI/ADR-RES = tested on: NCI/ADR-RES
# OVCAR-3 = tested on: OVCAR-3
# OVCAR-5 = tested on: OVCAR-5
# OVCAR-8 = tested on: OVCAR-8
# PC-3 = tested on: PC-3
# RPMI-8226 = tested on: RPMI-8226
# RXF 393 = tested on: RXF 393
# SF-268 = tested on: SF-268
# SF-295 = tested on: SF-295
# SF-539 = tested on: SF-539
# SK-MEL-28 = tested on: SK-MEL-28
# SK-MEL-2 = tested on: SK-MEL-2
# SK-MEL-5 = tested on: SK-MEL-5
# SNB-19 = tested on: SNB-19
# SNB-75 = tested on: SNB-75
# SR = tested on: SR
# SW-620 = tested on: SW-620
# TK-10 = tested on: TK-10
# U-251 = tested on: U-251
# UACC-257 = tested on: UACC-257
# UACC-62 = tested on: UACC-62
# UO-31 = tested on: UO-31
# A498 = tested on: A498
# CAKI-1 = tested on: CAKI-1
# HOP-92 = tested on: HOP-92
# MDA-MB-231 = tested on: MDA-MB-231
# OVCAR-4 = tested on: OVCAR-4
# SK-OV-3 = tested on: SK-OV-3
# SN12C = tested on: SN12C
# T47D = tested on: T47D
smiles,measurement,setting,value
CCOC(=O)C(=[N+]=[N-])C(=O)CN1C(=O)C2CC(C)=C(C)CC2C1O (stereo not drawn),GI50,786-0,> 100 µM (inactive)
same,GI50,A549,> 100 µM (inactive)
same,GI50,ACHN,> 100 µM (inactive)
same,GI50,BT-549,> 100 µM (inactive)
same,GI50,CCRF-CEM,> 100 µM (inactive)
same,GI50,COLO 205,> 100 µM (inactive)
same,GI50,DU-145,> 100 µM (inactive)
same,GI50,EKVX,> 100 µM (inactive)
same,GI50,HCC 2998,> 100 µM (inactive)
same,GI50,HCT-116,> 100 µM (inactive)
same,GI50,HL-60,> 100 µM (inactive)
same,GI50,HOP-62,> 100 µM (inactive)
same,GI50,HT-29,> 100 µM (inactive)
same,GI50,Hs-578T,> 100 µM (inactive)
same,GI50,IGROV-1,> 100 µM (inactive)
same,GI50,K562,> 100 µM (inactive)
same,GI50,KM12,> 100 µM (inactive)
same,GI50,LOX IMVI,> 100 µM (inactive)
same,GI50,M14,> 100 µM (inactive)
same,GI50,MCF7,> 100 µM (inactive)
same,GI50,MDA-MB-435,> 100 µM (inactive)
same,GI50,MDA-N,> 100 µM (inactive)
same,GI50,MOLT-4,> 100 µM (inactive)
same,GI50,Malme-3M,> 100 µM (inactive)
same,GI50,NCI-H226,68.2 µM (inactive)
same,GI50,NCI-H23,> 100 µM (inactive)
same,GI50,NCI-H460,> 100 µM (inactive)
same,GI50,NCI-H522,> 100 µM (inactive)
same,GI50,NCI/ADR-RES,> 100 µM (inactive)
same,GI50,OVCAR-3,> 100 µM (inactive)
same,GI50,OVCAR-5,> 100 µM (inactive)
same,GI50,OVCAR-8,> 100 µM (inactive)
same,GI50,PC-3,> 100 µM (inactive)
same,GI50,RPMI-8226,> 100 µM (inactive)
same,GI50,RXF 393,> 100 µM (inactive)
same,GI50,SF-268,> 100 µM (inactive)
same,GI50,SF-295,> 100 µM (inactive)
same,GI50,SF-539,> 100 µM (inactive)
same,GI50,SK-MEL-28,> 100 µM (inactive)
same,GI50,SK-MEL-2,> 100 µM (inactive)
same,GI50,SK-MEL-5,> 100 µM (inactive)
same,GI50,SNB-19,> 100 µM (inactive)
same,GI50,SNB-75,> 100 µM (inactive)
same,GI50,SR,> 100 µM (inactive)
same,GI50,SW-620,> 100 µM (inactive)
same,GI50,TK-10,> 100 µM (inactive)
same,GI50,U-251,> 100 µM (inactive)
same,GI50,UACC-257,> 100 µM (inactive)
same,GI50,UACC-62,> 100 µM (inactive)
same,GI50,UO-31,> 100 µM (inactive)
Nc1ccccc1C#CC(=O)c1cccc(C(F)(F)F)c1,GI50,786-0,2.1 µM (inactive)
same,GI50,A498,18.5 µM (inactive)
same,GI50,A549,16.8 µM (inactive)
same,GI50,CAKI-1,3.21 µM (inactive)
same,GI50,CCRF-CEM,0.867 µM (active)
same,GI50,COLO 205,1.89 µM (inactive)
same,GI50,DU-145,3.24 µM (inactive)
same,GI50,EKVX,16.3 µM (inactive)
same,GI50,HCT-116,2.66 µM (inactive)
same,GI50,HL-60,6.07 µM (inactive)
same,GI50,HOP-62,7.24 µM (inactive)
same,GI50,HOP-92,1.99 µM (inactive)
same,GI50,HT-29,4.16 µM (inactive)
same,GI50,Hs-578T,2.56 µM (inactive)
same,GI50,IGROV-1,0.258 µM (active)
same,GI50,K562,3.01 µM (inactive)
same,GI50,KM12,13.9 µM (inactive)
same,GI50,LOX IMVI,1.46 µM (inactive)
same,GI50,M14,2.22 µM (inactive)
same,GI50,MCF7,2.89 µM (inactive)
same,GI50,MDA-MB-231,1.95 µM (inactive)
same,GI50,MDA-MB-435,2.52 µM (inactive)
same,GI50,MDA-N,3.1 µM (inactive)
same,GI50,MOLT-4,2.55 µM (inactive)
same,GI50,Malme-3M,6.1 µM (inactive)
same,GI50,NCI-H226,3.58 µM (inactive)
same,GI50,NCI-H23,1.97 µM (inactive)
same,GI50,NCI-H460,19.3 µM (inactive)
same,GI50,NCI-H522,1.09 µM (active)
same,GI50,NCI/ADR-RES,4.89 µM (inactive)
same,GI50,OVCAR-3,3.78 µM (inactive)
same,GI50,OVCAR-4,2.22 µM (inactive)
same,GI50,OVCAR-5,6.59 µM (inactive)
same,GI50,PC-3,3.41 µM (inactive)
same,GI50,RPMI-8226,2.3 µM (inactive)
same,GI50,RXF 393,2.25 µM (inactive)
same,GI50,SF-268,2.2 µM (inactive)
same,GI50,SF-295,15.7 µM (inactive)
same,GI50,SF-539,3.18 µM (inactive)
same,GI50,SK-MEL-2,1.18 µM (inactive)
same,GI50,SK-MEL-5,2.35 µM (inactive)
same,GI50,SK-OV-3,15.3 µM (inactive)
same,GI50,SN12C,2.06 µM (inactive)
same,GI50,SNB-19,14.5 µM (inactive)
same,GI50,SNB-75,14.1 µM (inactive)
same,GI50,SR,2.27 µM (inactive)
same,GI50,SW-620,2.21 µM (inactive)
same,GI50,T47D,4.03 µM (inactive)
same,GI50,TK-10,17.2 µM (inactive)
same,GI50,U-251,1.95 µM (inactive)
same,GI50,UACC-257,15.7 µM (inactive)
same,GI50,UACC-62,1.86 µM (inactive)
same,GI50,UO-31,1.29 µM (inactive)
